Measurements as given in ChEMBL document CHEMBL3217457, “Carbazolepyrrolo[2,1-c][1,4]benzodiazepine conjugates: design, synthesis, and biological evaluation” (Medchemcomm, 2011).
Active and inactive are the calls of the source. The calls are words filed in the database; no cut-off is given here.

Experiments:
T47D = test: Growth inhibition of human T47D cells; format: functional
[1] = Growth inhibition of human MOLT4 cells; format: functional; conditions: MOLT-4
Malme-3M = test: Growth inhibition of human MALME-3M cells; format: functional
[2] = Growth inhibition of human RXF393 cells; format: functional; conditions: RXF 393
[3] = Growth inhibition of human SF539 cells; format: functional; conditions: SF-539
[4] = Growth inhibition of human OVCAR5 cells; format: functional; conditions: OVCAR-5
SK-OV-3 = test: Growth inhibition of human SKOV3 cells; format: functional
M14 = test: Growth inhibition of human M14 cells; format: functional
[5] = Growth inhibition of human HCT15 cells; format: functional; conditions: HCT-15
SiHa = test: Growth inhibition of human SiHa cells; format: functional
[6] = Growth inhibition of human Hs 578T cells; format: functional
MCF7 [7] = test: Cell cycle arrest in human MCF7 cells assessed as accumulation at G1 phase at 4 uM after 24 hrs by propidium iodide staining based flow cytometry (reference value: 57.98%); format: functional
SNB-75 = test: Growth inhibition of human SNB75 cells; format: functional
[8] = Growth inhibition of human BT549 cells; format: functional; conditions: BT-549
SR = test: Growth inhibition of human SR cells; format: functional
SW-620 = test: Growth inhibition of human SW620 cells; format: functional
ZR-75-1 = test: Growth inhibition of human ZR-75-1 cells; format: functional
SNB-19 = test: Growth inhibition of human SNB19 cells; format: functional
TK-10 = test: Growth inhibition of human TK10 cells; format: functional
COLO 205 = test: Growth inhibition of human COLO205 cells; format: functional
MCF7 [9] = test: Cell cycle arrest in human MCF7 cells assessed as accumulation at S phase at 4 uM after 24 hrs by propidium iodide staining based flow cytometry (reference value: 14.30%); format: functional
[10] = Growth inhibition of human UO31 cells; format: functional; conditions: UO-31
IGROV-1 = test: Growth inhibition of human IGROV1 cells; format: functional
Calf thymus DNA = test: Binding affinity to calf thymus DNA assessed as change in melting temperature at compound to DNA ratio of 1:5 after 18 hrs by thermal denaturation analysis; format: nucleic-acid assay; conditions: Bos taurus
[11] = Growth inhibition of human HCC2998 cells; format: functional; conditions: HCC 2998
MCF7 [12] = test: Cytotoxicity against human MCF7 cells assessed as decrease in cell viability at 2 to 16 uM after 6 to 48 hrs by MTT assay; format: functional, cell-based
SK-MEL-2 = test: Growth inhibition of human SK-MEL-2 cells; format: functional
786-0 = test: Growth inhibition of human 786-0 cells; format: functional
NCI-H522 = test: Growth inhibition of human NCI-H522 cells; format: functional
HL-60(TB) = test: Growth inhibition of human HL-60(TB) cells; format: functional
MCF7 [13] = test: Cell cycle arrest in human MCF7 cells assessed as accumulation at G0/G1 phase at 4 uM after 24 hrs by propidium iodide staining based flow cytometry (reference value: 60.75%); format: functional
MCF7 [14] = test: Cytotoxicity against human MCF7 cells by ATP-dependent cell viability assay; format: functional, cell-based
MDA-MB-435 = test: Growth inhibition of human MDA-MB-435 cells; format: functional
SF-268 = test: Growth inhibition of human SF268 cells; format: functional
NCI-H23 = test: Growth inhibition of human NCI-H23 cells; format: functional
A498 = test: Growth inhibition of human A498 cells; format: functional
[15] = Growth inhibition of human OVCAR4 cells; format: functional; conditions: OVCAR-4
SK-MEL-5 = test: Growth inhibition of human SK-MEL-5 cells; format: functional
PC-3 = test: Growth inhibition of human PC3 cells; format: functional
HOP-62 = test: Growth inhibition of human HOP62 cells; format: functional
[16] = Growth inhibition of human MDA-MB cells; format: functional
SK-MEL-28 = test: Growth inhibition of human SK-MEL-28 cells; format: functional
CCRF-CEM = test: Growth inhibition of human CCRF-CEM cells; format: functional
CAKI-1 = test: Growth inhibition of human CAKI-1 cells; format: functional
MDA-MB-468 = test: Growth inhibition of human MDA-MB-468 cells; format: functional
[17] = Growth inhibition of human HOP92 cells; format: functional; conditions: HOP-92
MCF7 [18] = test: Cytotoxicity against human MCF7 cells assessed as decrease in cell viability at 4 uM after 24 hrs by MTT assay; format: functional, cell-based
U-251 = test: Growth inhibition of human U251 cells; format: functional
MCF7 [19] = test: Cell cycle arrest in human MCF7 cells assessed as accumulation at G2/M phase at 4 uM after 24 hrs by propidium iodide staining based flow cytometry (reference value: 24.95%); format: functional
MCF7 [20] = test: Growth inhibition of human MCF7 cells; format: functional
A549 = test: Growth inhibition of human A549 cells; format: functional
MCF7 [21] = test: Cell cycle arrest in human MCF7 cells assessed as accumulation at G0 phase at 4 uM after 24 hrs by propidium iodide staining based flow cytometry (reference value: 2.77%); format: functional
MCF7 [22] = test: Antiproliferative activity against human MCF7 cells assessed as cell proliferation at 4 uM after 24 hrs by BrdU incorporation assay (reference value: 100%); format: functional; conditions: MCF7, 24 h, read-out: Activity
DU-145 = test: Growth inhibition of human DU145 cells; format: functional
ACHN = test: Growth inhibition of human ACHN cells; format: functional
[23] = Growth inhibition of human UACC62 cells; format: functional; conditions: UACC-62
KM12 = test: Growth inhibition of human KM12 cells; format: functional
[24] = Growth inhibition of human EKVX cells; format: functional
NCI-H322M = test: Growth inhibition of human NCI-H322M cells; format: functional
HCT-116 = test: Growth inhibition of human HCT116 cells; format: functional
SN12C = test: Growth inhibition of human SN12C cells; format: functional
[25] = Growth inhibition of human UACC257 cells; format: functional; conditions: UACC-257
[26] = Growth inhibition of human LOXIMVI cells; format: functional; conditions: LOX IMVI
A2780 = test: Growth inhibition of human A2780 cells; format: functional
NCI-H460 = test: Growth inhibition of human NCI-H460 cells; format: functional
HT-29 = test: Growth inhibition of human HT-29 cells; format: functional
NCI-H226 = test: Growth inhibition of human NCI-H226 cells; format: functional
KB = test: Growth inhibition of human KB cells; format: functional
[27] = Growth inhibition of human Gurav cells; format: functional
[28] = Growth inhibition of human OVCAR3 cells; format: functional; conditions: OVCAR-3

Compound COc1cc2c(cc1OCCCN1CCN(CCCn3c4ccccc4c4ccccc43)CC1)N=C[C@@H]1CCCN1C2=O has a GI50 (T47D) of 170 nM, a GI50 [1] of 20 nM and a GI50 (Malme-3M) of 150 nM. The GI50 [2] was 220 nM, the GI50 [3] was 120 nM and the GI50 [4] was 30 nM. The GI50 (SK-OV-3) was 290 nM, the GI50 (M14) was 150 nM and the GI50 [5] was 280 nM. The GI50 (SiHa) was 140 nM, the GI50 [6] was 160 nM and the Activity (MCF7 [7]) was 69.47%. It also gave a GI50 (SNB-75) of 150 nM, a GI50 [8] of 130 nM and a GI50 (SR) of 30 nM. The GI50 (SW-620) was 40 nM, the GI50 (ZR-75-1) was 130 nM and the GI50 (SNB-19) was 210 nM. It also gave a GI50 (TK-10) of 120 nM, a GI50 (COLO 205) of 70 nM and an Activity (MCF7 [9]) of 9.53%. The GI50 [10] was 120 nM, the GI50 (IGROV-1) was less than 10 nM and the ΔTm (Calf thymus DNA) was 7 °C. For the same compound, the GI50 [11] was 130 nM, the inhibition (MCF7 [12]) was “Active” and the GI50 (SK-MEL-2) was 190 nM. The GI50 (786-0) was 190 nM, the GI50 (NCI-H522) was less than 10 nM and the GI50 (HL-60(TB)) was 30 nM. The Activity (MCF7 [13]) was 86.6%, the inhibition (MCF7 [14]) was “Active” and the GI50 (MDA-MB-435) was 10 nM. For the same compound, the GI50 (SF-268) was 50 nM, the GI50 (NCI-H23) was 260 nM and the GI50 (A498) was 170 nM. For the same compound, the GI50 [15] was 100 nM, the GI50 (SK-MEL-5) was 230 nM and the GI50 (PC-3) was 30 nM. For the same compound, the GI50 (HOP-62) was 80 nM, the GI50 [16] was 950 nM and the GI50 (SK-MEL-28) was 60 nM. The GI50 (CCRF-CEM) was 20 nM, the GI50 (CAKI-1) was 120 nM and the GI50 (MDA-MB-468) was 110 nM. For the same compound, the GI50 [17] was 270 nM, the inhibition (MCF7 [18]) was “Active” and the GI50 (U-251) was 30 nM. For the same compound, the Activity (MCF7 [19]) was 3.87%, the GI50 (MCF7 [20]) was 40 nM and the GI50 (A549) was 140 nM. For the same compound, the Activity (MCF7 [21]) was 17.13%, the growth at 4 µM (MCF7 [22]) was 35.2% and the GI50 (DU-145) was 40 nM. For the same compound, the GI50 (ACHN) was 250 nM, the GI50 [23] was 150 nM and the GI50 (KM12) was 150 nM. The GI50 [24] was 140 nM, the GI50 (NCI-H322M) was 250 nM and the GI50 (HCT-116) was 60 nM. For the same compound, the GI50 (SN12C) was 270 nM, the GI50 [25] was 150 nM and the GI50 [26] was 30 nM. It also gave a GI50 (A2780) of 120 nM, a GI50 (NCI-H460) of 250 nM and a GI50 (HT-29) of 50 nM. For the same compound, the GI50 (NCI-H226) was 130 nM, the GI50 (KB) was 130 nM and the GI50 [27] was 120 nM. The GI50 [28] was 69 nM.

In the case of COc1ccc(-c2ccc3[nH]c4ccc(-c5ccc(OC)cc5)cc4c3c2)cc1, the Activity (MCF7 [7]) was 62.24%, the Activity (MCF7 [9]) was 11.84% and the Activity (MCF7 [13]) was 66.63%. For the same compound, the Activity (MCF7 [19]) was 21.53% and the Activity (MCF7 [21]) was 4.39%.
